This passage reports Drug uptake and Ratio results from ChEMBL document CHEMBL3046801, “Synthesis of 2-R1-2-(4-(2-fluoroethoxy)benzamido)acetate as potential PET imaging agents” (Med Chem Res, 2012).

The test system of series [1] is Tumour. Nature of the series: Biodistribution in tumor of Mus musculus KM (mouse) at 3.7 MBq, iv measured at 15 min by microPET imaging analysis. The format is ADME, organism-based, Neoplasm. The conditions noted are these: in vivo, 0.25 h.
Series [2] concerns Spleen. Nature of the series: Biodistribution in tumor bearing Mus musculus KM (mouse) spleen at 3.7 MBq, iv measured at 5 min by microPET imaging analysis. The conditions noted are these: in vivo. The format is ADME, organism-based.
Series [3] deals with Nucleic Acid. Put plainly: Ratio of drug uptake in tumor to muscle in Mus musculus KM (mouse) at 3.7 MBq, iv at 5 min. Format: ADME, organism-based. The note with it: in vivo.
Series [4] relates to Nucleic Acid. Put plainly: Ratio of drug uptake in tumor to muscle in Mus musculus KM (mouse) at 3.7 MBq, iv at 120 min. Format: ADME, organism-based. The note with it: in vivo, 2 h.
Series [5] relates to Blood. Put plainly: Biodistribution in tumor bearing Mus musculus KM (mouse) blood at 3.7 MBq, iv by microPET imaging analysis. Format: ADME, organism-based. The note with it: in vivo, TDE = time-dependent effect.
Series [6] concerns Spleen. Put plainly: Biodistribution in tumor bearing Mus musculus KM (mouse) spleen at 3.7 MBq, iv by microPET imaging analysis. Format: ADME, organism-based. The note with it: in vivo, TDE = time-dependent effect.
For series [7], the system named is Heart. Put plainly: Biodistribution in tumor bearing Mus musculus KM (mouse) heart at 3.7 MBq, iv measured at 5 min by microPET imaging analysis. Format: ADME, organism-based. The note with it: in vivo.
Series [8] concerns Liver. Put plainly: Biodistribution in tumor bearing Mus musculus KM (mouse) liver at 3.7 MBq, iv by microPET imaging analysis. Format: ADME, organism-based. The conditions noted are these: in vivo, TDE = time-dependent effect.
The test system of series [9] is Kidney. Nature of the series: Biodistribution in tumor bearing Mus musculus KM (mouse) kidney at 3.7 MBq, iv measured at 30 min by microPET imaging analysis. The format is ADME, organism-based. The note with it: in vivo, 0.5 h.
Series [10] concerns Kidney. Nature of the series: Biodistribution in tumor bearing Mus musculus KM (mouse) kidney at 3.7 MBq, iv measured at 120 min by microPET imaging analysis. Format: ADME, organism-based. The conditions noted are these: in vivo, 2 h.
In series [11] the test system is Kidney. Nature of the series: Biodistribution in tumor bearing Mus musculus KM (mouse) kidney at 3.7 MBq, iv measured at 15 min by microPET imaging analysis. Format: ADME, organism-based. The conditions noted are these: in vivo, 0.25 h.
Series [12] has as its system Heart. Put plainly: Biodistribution in tumor bearing Mus musculus KM (mouse) heart at 3.7 MBq, iv measured at 30 min by microPET imaging analysis. The format is ADME, organism-based. The note with it: in vivo, 0.5 h.
In series [13] the test system is Nucleic Acid. Nature of the series: Ratio of drug uptake in tumor to muscle in Mus musculus KM (mouse) at 3.7 MBq, iv at 30 min. The note with it: in vivo, 0.5 h. The format is ADME, organism-based.
Series [14] concerns Spleen. Put plainly: Biodistribution in tumor bearing Mus musculus KM (mouse) spleen at 3.7 MBq, iv measured at 30 min by microPET imaging analysis. The format is ADME, organism-based. The conditions noted are these: in vivo, 0.5 h.
For series [15], the system named is Muscle tissue. Put plainly: Biodistribution in tumor bearing Mus musculus KM (mouse) muscle at 3.7 MBq, iv measured at 15 min by microPET imaging analysis. Format: ADME, organism-based. The conditions noted are these: in vivo, 0.25 h.
In series [16] the test system is Spleen. Nature of the series: Biodistribution in tumor bearing Mus musculus KM (mouse) spleen at 3.7 MBq, iv measured at 15 min by microPET imaging analysis. The format is ADME, organism-based. The conditions noted are these: in vivo, 0.25 h.
Series [17] deals with Tumour. Put plainly: Biodistribution in tumor of Mus musculus KM (mouse) at 3.7 MBq, iv measured at 120 min by microPET imaging analysis. Format: ADME, organism-based, Neoplasm. The conditions noted are these: in vivo, 2 h.
Series [18] has as its system Muscle tissue. Put plainly: Biodistribution in tumor bearing Mus musculus KM (mouse) muscle at 3.7 MBq, iv measured at 120 min by microPET imaging analysis. The conditions noted are these: in vivo, 2 h. The format is ADME, organism-based.
The test system of series [19] is Kidney. Nature of the series: Biodistribution in tumor bearing Mus musculus KM (mouse) kidney at 3.7 MBq, iv measured at 5 min by microPET imaging analysis. The conditions noted are these: in vivo. Format: ADME, organism-based.
Series [20] concerns Lung. Nature of the series: Biodistribution in tumor bearing Mus musculus KM (mouse) lung at 3.7 MBq, iv measured at 15 min by microPET imaging analysis. The format is ADME, organism-based. The note with it: in vivo, 0.25 h.
Series [21] has as its system Muscle tissue. Nature of the series: Biodistribution in tumor bearing Mus musculus KM (mouse) muscle at 3.7 MBq, iv measured at 60 min by microPET imaging analysis. The format is ADME, organism-based. The conditions noted are these: in vivo, 1 h.

As to `COC(=O)CNC(=O)c1ccc(OCC[18F])cc1` [[18F]FEBA], the Drug uptake in series [1] is 2.3 % ID/g; in series [2], 2.04 % ID/g; in series [5] it was “tde”; in series [6] it was “tde”; in series [7] it was 2.64 % ID/g; in [8], “tde”. Also, the Drug uptake stood at 1.77 % ID/g in series [9]; 0.65 % ID/g in series [10]; 4.07 % ID/g in [11]; 0.95 % ID/g in [12]; 0.79 % ID/g in [14]; 1.25 % ID/g in series [15]. Also, the Drug uptake is 1.19 % ID/g in [16]; 1.21 % ID/g in [17]; 1.17 % ID/g in series [18]; 7.25 % ID/g in series [19]; 1.69 % ID/g in series [20]; 0.53 % ID/g in series [21]. The Ratio in series [3] is reported as 1.05; in series [4], 1.03; in series [13], 1.82.
